Like-named read-outs stand apart in the source and are kept apart here.
System: HIV-1 long terminal repeat (LTR)-driven luciferase reporter gene in FlipIn.FM HEK293 cells
Experiment: cells
Assay type: cell-based
Conditions: 11-point, 2-fold dilution series, highest concentration 40 μM, read-out: Latent reporter Av EC50
Procedure: FIG. 44. […] The FlipIn.FM model of HIV-1 latency was treated with JQ1 (+) and DP#14 (Compound 7) alone at 10 μM and in combination, and the HIV-1 gene expression measured 48 hrs post treatment. Error bars represent standard deviation of n=3 experiments. OPTI represents media alone, without DP#14.
FIG. 46. […] The FlipIn.FM model of HIV-1 latency was treated with PFI-1 and DP#14 alone at 10 μM and in combination, and the HIV-1 gene expression measured 48 hrs post treatment. Error bars represent standard deviation of n=3 experiments. OPTI represents media alone, without DP#14.
Explicitly, HEK293 derived FlipIn-FM and FlipIn-RV dual reporter cells each include a single stable HIV-1 long terminal repeat (LTR)-driven luciferase reporter genes, with a second complimentary non-HIV (off-target) luciferase reporter. These cell lines model post integration latency and read-through transcription by expressing a low level of HIV-1 Tat protein via a native Internal Ribosome Entry Site (IRES) found within Tat, from a chimeric cellular-tat gene cassette. FlipIn-FM and FlipIn-RV clones were chosen for low basal levels of LTR activity and high responsiveness to Tat as well as many Latency Reversing Agents (LRAs).
The dual reporter cell lines contain three stably integrated constructs that together allow for detection of novel LRAs, capable of potent and specific HIV reactivation. The FlipIn.FM line contains a proviral LTR-driven nef/CBR reporter fusion gene, allowing for detection of viral gene expression. A second CMV-driven CBG luciferase reporter allows for detection of off target drug effects, including non-specific activation and drug toxicity. The third construct contains the first coding exon of HIV-1 tat, within human Growth Hormone (hGH) as a chimeric gene, expressing HIV-1 Tat protein from an IRES mechanism that underlies the tat exon. This construct models read-through transcription and the low level of Tat protein expression that occurs during post integration latency. The counter screening reverse cell line, FlipIn.RV, contains the same three components with the Click Beetle Luciferase genes in the opposite orientation (LTR-CBG and CMV-CBR) for counter screening.
Compounds were evaluated in an 11-point titration using normal CMV-CBG/LTR-CBR reporter cell line and an 11 point reverse CMV-CBR/LTR-CBG reporter cell line.
The FlipIn cell lines were therefore designed with a dual purpose, to detect novel compounds that reactivate HIV-1 and to also screen out compounds that behaved in a largely non-specific manner. To achieve the latter, the cell lines contain an “off target” reporter gene construct, driven by the unrelated CMV-IE promoter, that allows for the detection of drug mediated off target effects including global gene activation as well as possible toxicity.
The HIV-LTR driven latent reporter gene identifies the HIV-specific activation, and the term “global reporter” is interchangeable with “off target reporter” and refers to the unrelated CMV-IE promoter driven reporter gene, which is used as a surrogate for global gene activation. […] The highest concentration tested here was 40 μM.

[1] = Human immunodeficiency virus 1, HEK293, HIV-LTR driven latent reporter

CC(C)c1cnc(NC(=O)CCCOc2ccccc2)s1 [Compound 52] gave an EC50 [1] of 3.8 µM.
In the case of Cc1cnc(NC(=O)CCCOc2ccc(Cl)c(Cl)c2)s1 [Compound 12], the EC50 [1] is reported as 3.22 µM.
With Cc1cc(N2CCN(C(=O)Nc3ncc(Cl)s3)CC2)ccc1Cl [Compound 70] the EC50 [1] was 0.21 µM.
Cc1ccc(N2CCC(C(=O)Nc3ncc(C#N)s3)CC2)cc1Cl [Compound 79] was tested, and the EC50 [1] was 3.83 µM.
In the case of N#Cc1cnc(NC(=O)N2CCN(c3ccc(Cl)c(Cl)c3)CC2)s1 [Compound 68], the EC50 [1] is reported as 0.52 µM.
Cc1cc(OCCCC(=O)Nc2ncc(Br)s2)ccc1Cl [Compound 17] showed an EC50 [1] of 2.83 µM.
CCc1cnc(NC(=O)CCCOc2ccccc2)s1 [Compound 6] showed an EC50 [1] of 1.09 µM.
Work on COc1ccccc1OCCCC(=O)Nc1ncc(C)s1 [Compound 42] yielded an EC50 [1] of 1.42 µM.
With Cc1cnc(NC(=O)CCCOc2ccc(Br)c(Cl)c2)s1 [Compound 14] the EC50 [1] was 3.09 µM.
Cc1cnc(NC(=O)CCCNc2ccc(Cl)c(C(F)(F)F)c2)s1 [Compound 58] was tested, and the EC50 [1] was 2 µM.
Molecule Cc1cc(NC2CCN(C(=O)Nc3ncc(Cl)s3)C2)ccc1Cl (centres unmarked) [Compound 81] has an EC50 [1] of 1.5 µM.
In the case of Cc1cnc(NC(=O)CCCN(C)c2ccccc2)s1 [Compound 56], the EC50 [1] is reported as 14.8 µM.
Cc1cc(OCCCC(=O)Nc2ncc(C(F)(F)F)s2)ccc1Cl [Compound 62] gave an EC50 [1] of 4.74 µM.
For Cc1cc(OCCCC(=O)Nc2ccc(Cl)cn2)ccc1Cl [Compound 54], the EC50 [1] was 19.4 µM.
Cc1ccc(OCCCC(=O)Nc2ncc(Cl)s2)cc1Cl [Compound 60] showed an EC50 [1] of 3.56 µM.
Cc1cnc(NC(=O)CCCOc2ccc(Cl)c(C)c2)s1 [Compound 36] showed an EC50 [1] of 4.2 µM.
With CCc1cnc(NC(=O)CCCOc2ccc(Br)c(Cl)c2)s1 [Compound 22] the EC50 [1] was 2.01 µM.
O=C(CCCOc1ccccc1)Nc1ccc(Br)cn1 [Compound 29] showed an EC50 [1] of 7.6 µM.
Cc1cc(OCCC(=O)Nc2ncc(Cl)s2)ccc1Cl [Compound 83] showed an EC50 [1] of 2.2 µM.
Cc1cc(OCCCC(=O)Nc2ncc(Cl)s2)ccc1Cl [Compound 20] was tested, and the EC50 [1] was 1.85 µM.
In the case of O=C(CCCOc1ccc(Cl)c(Cl)c1)Nc1ncc(Cl)s1 [Compound 19], the EC50 [1] is reported as 1.48 µM.
Work on Cc1cc(N2CCN(C(=O)Nc3ncc(Cl)s3)CC2)ncc1C#N [Compound 72] yielded an EC50 [1] of 0.25 µM.
In the case of O=C(CCCOc1ccccc1)Nc1ncc(C(F)(F)F)s1 [Compound 51], the EC50 [1] is reported as 2.37 µM.
COc1cccc(OCCCC(=O)Nc2ncc(C)s2)c1 [Compound 44] showed an EC50 [1] of 5.3 µM.
O=C(CCCOc1ccc(Br)c(Cl)c1)Nc1ncc(Br)s1 [Compound 15] was tested, and the EC50 [1] was 2.56 µM.
Molecule Cc1cnc(NC(=O)CCCOc2cccc(C=O)c2)s1 [Compound 49] has an EC50 [1] of 2.64 µM.
With O=C(CCCOc1ccc(Cl)c(Cl)c1)Nc1ncc(Br)s1 [Compound 16] the EC50 [1] was 1.23 µM.
In the case of Cc1ccc(N2CCC(C(=O)Nc3ncc(Cl)s3)CC2)cc1Cl [Compound 78], the EC50 [1] is reported as 11.4 µM.
For Cc1cnc(NC(=O)CCCOc2ccc(Cl)c(C(F)(F)F)c2)s1 [Compound 38], the EC50 [1] was 5.07 µM.
Work on Cc1cnc(NC(=O)CCCOc2cccc(O)c2)s1 [Compound 43] yielded an EC50 [1] of 12.5 µM.
For O=C(CCCOc1ccccc1)Nc1ccc(Cl)cn1 [Compound 40], the EC50 [1] was 6.86 µM.
Cc1cnc(NC(=O)CCCCc2ccccc2)s1 [Compound 4] gave an EC50 [1] of 9.26 µM.
With N#Cc1cnc(NC(=O)CCCOc2ccc(Br)c(Cl)c2)s1 [Compound 21] the EC50 [1] was 2.12 µM.
Work on O=C(Nc1ncc(Cl)s1)N1CCCN(c2ccc(Cl)c(Cl)c2)CC1 [Compound 75] yielded an EC50 [1] of 5.46 µM.
For Cc1cnc(NC(=O)CCCOc2cccc([N+](=O)[O-])c2)s1 [Compound 45], the EC50 [1] was 5.29 µM.
With Cc1cnc(NC(=O)CCCOc2cccc(CO)c2)s1 [Compound 48] the EC50 [1] was 4.13 µM.
Work on N#Cc1cnc(NC(=O)CCCOc2ccccc2)s1 [Compound 5] yielded an EC50 [1] of 3.48 µM.
COc1ccc(NC(=O)CCCOc2ccc(Cl)c(C)c2)nc1 [Compound 55] was tested, and the EC50 [1] was 17.9 µM.
Cc1cnc(NC(=O)N2CCN(c3ccc(Cl)c(C)c3)CC2)s1 [Compound 69] showed an EC50 [1] of 0.34 µM.
Work on Cc1cnc(NC(=O)CCCOc2cccc(Cl)c2)s1 [Compound 46] yielded an EC50 [1] of 5.23 µM.
Work on O=C(CCCOc1ccc(Br)c(Cl)c1)Nc1ncc(Cl)s1 [Compound 18] yielded an EC50 [1] of 2.83 µM.
Molecule Cc1ccc(N2CCCN(C(=O)Nc3ncc(Cl)s3)CC2)cc1Cl [Compound 74] has an EC50 [1] of 5.2 µM.
Cc1cnc(NC(=O)CCCNc2ccc(Cl)c(C)c2)s1 [Compound 57] was tested, and the EC50 [1] was 1.7 µM.
Cc1cnc(NC(=O)N2CCN(c3ccc(C)c(Cl)c3)CC2)s1 [Compound 63] was tested, and the EC50 [1] was 0.45 µM.
O=C(CCCOc1ccccc1)Nc1ccc(C(F)(F)F)cn1 [Compound 30] gave an EC50 [1] of 9.74 µM.
Molecule Cc1cnc(NC(=O)CCCN(C)c2ccc(Cl)c(C)c2)s1 [Compound 59] has an EC50 [1] of 1.11 µM.
Cc1cnc2[nH]c(CCCOc3ccc(C)c(Cl)c3)nc2c1 [Compound 76] gave an EC50 [1] of 7.75 µM.
With Cc1cc(OCCCC(=O)Cc2ncc(C(C)C)s2)ccc1Cl [Compound 61] the EC50 [1] was 4.29 µM.
Cc1cc(N2CCN(C(=O)Nc3ncc(C#N)s3)CC2)ccc1Cl [Compound 71] was tested, and the EC50 [1] was 0.88 µM.
Cc1cnc(NC(=O)CCCOc2cccc(C(F)(F)F)c2)s1 [Compound 47] was tested, and the EC50 [1] was 6.55 µM.
Molecule Cc1ccc(OCCCc2nc3cc(Br)cnc3[nH]2)cc1Cl [Compound 77] has an EC50 [1] of 3.97 µM.
For O=C(Nc1ncc(Cl)s1)N1CCN(c2ccc(Cl)c(Cl)c2)CC1 [Compound 67], the EC50 [1] was 0.27 µM.
Molecule Cc1cnc(NC(=O)CCCOc2ccc(Cl)c(C)c2)s1 [Compound 1] has an EC50 (HIV-LTR driven latent reporter) of 4.88 µM.
Cc1cnc(NC(=O)N2CCC(Nc3ccc(Cl)c(C)c3)C2)s1 (centres unmarked) [Compound 80] gave an EC50 [1] of 10.1 µM.
Molecule O=C(CCCOc1ccccc1)Nc1ncc(Cl)s1 [Compound 8] has an EC50 [1] of 1.99 µM.
Cc1cnc(NC(=O)N2CCN(c3ccc(Cl)c(Cl)c3)CC2)s1 [Compound 66] gave an EC50 [1] of 0.58 µM.
